Values of other authors in Sander's compilation of Henry's law constants.
Where “and” joins values, the source holds several entries; their conditions need not be identical. Equal entries are not always repeated. Blank lines part the entries; values can stand above or below the compound they belong to.

Test: Henry solubility constant Hcp at 298.15 K (mol/(m3 Pa))
Details: cited value
[1] = reference: Barcelo and Hennion (1997)
[2] = reference: Burkholder et al. (2015)
[3] = reference: Burkholder et al. (2019)
[4] = reference: Fogg and Sangster (2003)
[5] = reference: Sander et al. (2006)
[6] = reference: Sander et al. (2011)
[7] = reference: Mackay et al. (1995)
[8] = reference: Harrison et al. (1993)
[9] = reference: Schwartz and White (1981)
[10] = reference: Mackay et al. (1992b)

Henry solubility constant Hcp (reference: Brockbank (2013)): 0.6
Compound: CCC(O)CC [3-pentanol]

Henry solubility constant Hcp (reference: MacBean (2012b)): 1.5e+07
Compound: CC(C)c1nn(C(=O)NC(C)(C)C)c(=O)n1N [amicarbazone]

Henry solubility constant Hcp [1]: 1.1
Compound: CCNC(=O)[C@@H](C)OC(=O)Nc1ccccc1 [carbetamide]

Compound: OO [hydrogen peroxide]
Henry solubility constant Hcp (reference: Brockbank (2013)): 950
Henry solubility constant Hcp [2]: 860
Henry solubility constant Hcp [3]: 860
Henry solubility constant Hcp [4]: 980
Henry solubility constant Hcp [5]: 760
Henry solubility constant Hcp [6]: 830

Compound: COO [methyl hydroperoxide]
Henry solubility constant Hcp (reference: Brockbank (2013)): 3
Henry solubility constant Hcp [2]: 3
Henry solubility constant Hcp [3]: 3
Henry solubility constant Hcp [5]: 3
Henry solubility constant Hcp [6]: 3

Compound: CCOP(=S)(OCC)SCSC(C)(C)C [terbufos]
Henry solubility constant Hcp [1]: 0.0099

Henry solubility constant Hcp (reference: MacBean (2012b)): > 3700
Compound: S=C([S-])NCCNC(=S)[S-].[Zn+2] [zineb]

Compound: COP(=O)(OC)C(O)C(Cl)(Cl)Cl (stereo unspecified)
Henry solubility constant Hcp [1]: 5800

Compound: Clc1cc(Cl)c(Cl)c(Cl)c1 [1,2,3,5-tetrachlorobenzene]
Henry solubility constant Hcp (reference: Meylan and Howard (1991)): 0.0063

Henry solubility constant Hcp (reference: Brockbank (2013)): 2.4e-05
Compound: C/C=C\CCCC [cis-2-heptene]

Henry solubility constant Hcp (reference: Brockbank (2013)): 0.13
Compound: CCCCNCCCC [dibutylamine]

Compound: ClC(Cl)C(Cl)Cl [1,1,2,2-tetrachloroethane]
Henry solubility constant Hcp (reference: Barr and Newsham (1987)): 0.018
Henry solubility constant Hcp (reference: Brockbank (2013)): 0.024
Henry solubility constant Hcp [2]: 0.023
Henry solubility constant Hcp [3]: 0.023
Henry solubility constant Hcp (reference: Goldstein (1982)): 0.023

Compound: FC(F)(Cl)Cl [dichlorodifluoromethane]
Henry solubility constant Hcp (reference: Brockbank (2013)): 3.1e-05
Henry solubility constant Hcp [2]: 3e-05
Henry solubility constant Hcp [3]: 3e-05
Henry solubility constant Hcp (reference: Goldstein (1982)): 3.5e-06
Henry solubility constant Hcp [5]: 3e-05
Henry solubility constant Hcp [6]: 3e-05

Henry solubility constant Hcp (reference: Brockbank (2013)): 0.2
Compound: CCCCCCCCCCO [1-decanol]

Henry solubility constant Hcp (reference: MacBean (2012b)): 110
Compound: CC(C)OC(=O)N[C@@H](C(=O)N[C@H](C)c1nc2ccc(F)cc2s1)C(C)C [benthiavalicarb isopropyl]

Henry solubility constant Hcp (reference: Brockbank (2013)): 0.21
Compound: CCCCCCCC(C)O (stereo unspecified) [2-nonanol]

Compound: CC(=O)O[O] [peroxyacetyl radical]
Henry solubility constant Hcp [2]: < 0.00099
Henry solubility constant Hcp [3]: < 0.00099
Henry solubility constant Hcp [5]: < 0.00099
Henry solubility constant Hcp [6]: < 0.00099

Henry solubility constant Hcp (reference: Brockbank (2013)): 0.00085
Compound: CC(C)I [2-iodopropane]

Compound: O=COCC(F)(F)F [2,2,2-trifluoroethyl methanoate]
Henry solubility constant Hcp [2]: 0.0054
Henry solubility constant Hcp [3]: 0.0054
Henry solubility constant Hcp [6]: 0.0054

Henry solubility constant Hcp (reference: Brockbank (2013)): 1.9e-06
Compound: CC(C)CCC(C)(C)C [2,2,5-trimethylhexane]

Compound: CCCI [1-iodopropane]
Henry solubility constant Hcp (reference: Brockbank (2013)): 0.0011

Compound: CCCN(CCC)N=O [N-nitrosodipropylamine]
Henry solubility constant Hcp [7]: 1.6

Compound: CNC(C)=O [N-methylacetamide]
Henry solubility constant Hcp [2]: 2100
Henry solubility constant Hcp [3]: 2100

Compound: CCC(C)O (stereo unspecified) [2-butanol]
Henry solubility constant Hcp (reference: Brockbank (2013)): 0.95
Henry solubility constant Hcp [2]: 1.1
Henry solubility constant Hcp [3]: 1.1
Henry solubility constant Hcp [4]: 1
Henry solubility constant Hcp [5]: 1.1
Henry solubility constant Hcp [6]: 1.1

Compound: CN/C(=N\[N+](=O)[O-])NCc1cnc(Cl)s1 [clothianidin]
Henry solubility constant Hcp (reference: MacBean (2012b)): 3.4e+10

Henry solubility constant Hcp (reference: Brockbank (2013)): 0.0036
Compound: Cc1ccc(Br)cc1 [1-bromo-4-methylbenzene]

Compound: CNC [dimethylamine]
Henry solubility constant Hcp (reference: Brockbank (2013)): 0.62
Henry solubility constant Hcp [2]: 0.55
Henry solubility constant Hcp [3]: 0.55

Compound: CCBr [bromoethane]
Henry solubility constant Hcp (reference: Brockbank (2013)): 0.0013
Henry solubility constant Hcp [3]: 0.0013

Henry solubility constant Hcp (reference: Brockbank (2013)): 1.6e-05
Compound: C=CCCCCCC [1-octene]

Compound: COC(=O)OC [carbonic acid, dimethyl ester]
Henry solubility constant Hcp (reference: Brockbank (2013)): 0.15
Henry solubility constant Hcp [2]: 0.16
Henry solubility constant Hcp [3]: 0.16

Henry solubility constant Hcp [4]: 0.00056
Compound: FC(F)(F)C(Cl)Br (stereo unspecified) [1-bromo-1-chloro-2,2,2-trifluoroethane]

Henry solubility constant Hcp (reference: Brockbank (2013)): 1.1
Compound: CC(=O)c1ccccc1 [1-phenylethanone]

Henry solubility constant Hcp (reference: Brockbank (2013)): 1.3e-06
Compound: CCCCCCCCCC [decane]

Henry solubility constant Hcp (reference: Brockbank (2013)): 5.8e-05
Compound: C1CCCC1 [cyclopentane]

Henry solubility constant Hcp (reference: Brockbank (2013)): 0.0015
Compound: Fc1ccccc1 [fluorobenzene]

Henry solubility constant Hcp (reference: Brockbank (2013)): 6.4e-06
Compound: CCCC(C)C [2-methylpentane]

Compound: ClCCOCCCl [1,5-dichloro-3-oxapentane]
Henry solubility constant Hcp (reference: Brockbank (2013)): 0.48
Henry solubility constant Hcp (reference: Goldstein (1982)): 0.46 and 0.47
Henry solubility constant Hcp [8]: 0.37

Compound: Nc1ccc(-c2ccc(N)c(Cl)c2)cc1Cl [3,3'-dichloro-(1,1'-biphenyl)-4,4'-diamine]
Henry solubility constant Hcp [7]: 12

Compound: Cc1nnc(-c2ccccc2)c(=O)n1N [metamitron]
Henry solubility constant Hcp [1]: 1e+06

Henry solubility constant Hcp (reference: Brockbank (2013)): 0.00026
Compound: C#CCCCC [1-hexyne]

Compound: CCC(CC)Nc1c([N+](=O)[O-])cc(C)c(C)c1[N+](=O)[O-] [penoxaline]
Henry solubility constant Hcp [1]: 0.0026

Henry solubility constant Hcp (reference: Brockbank (2013)): 0.026
Compound: CC(=O)OCC(C)C [2-methylpropyl ethanoate]

Compound: CCNc1nc(Cl)nc(NC(C)(C)C#N)n1 [cyanazine]
Henry solubility constant Hcp [1]: 33000

Compound: O=Cc1ccccc1 [benzaldehyde]
Henry solubility constant Hcp (reference: Brockbank (2013)): 0.4
Henry solubility constant Hcp (reference: Gaffney and Senum (1984)): 0.36

Compound: COP(=S)(OC)Oc1ccc(SC)c(C)c1 [fenthion]
Henry solubility constant Hcp [1]: 0.45

Henry solubility constant Hcp (reference: Brockbank (2013)): 3.2e-06
Compound: CCCC(C)CC (stereo unspecified) [3-methylhexane]

Henry solubility constant Hcp (reference: Brockbank (2013)): 0.033
Compound: CC(=O)OC(C)C [2-propyl ethanoate]

Compound: O=NO [nitrous acid]
Henry solubility constant Hcp [9]: 0.48

Compound: COC(C)=O [methyl ethanoate]
Henry solubility constant Hcp (reference: Brockbank (2013)): 0.085
Henry solubility constant Hcp [3]: 0.085

Compound: N#CCc1ccccc1 [benzeneacetonitrile]
Henry solubility constant Hcp (reference: Brockbank (2013)): 1.1

Compound: ClC1C(Cl)C(Cl)C(Cl)C(Cl)C1Cl (stereo not drawn) [β-1,2,3,4,5,6-hexachlorocyclohexane]
Henry solubility constant Hcp (reference: Xiao et al. (2004)): 27

Henry solubility constant Hcp [10]: 1
Compound: c1ccc(Cc2ccccc2)cc1 [diphenylmethane]

Compound: ClNCl [dichloramine]
Henry solubility constant Hcp [2]: 0.29
Henry solubility constant Hcp [3]: 0.29
Henry solubility constant Hcp [5]: 0.29
Henry solubility constant Hcp [6]: 0.29

Henry solubility constant Hcp (reference: Brockbank (2013)): 2.2e-06
Compound: C=CCCCCCCCCCCCCC [1-pentadecene]

Henry solubility constant Hcp [10]: 13
Compound: c1cc2ccc3ccc4ccc5cccc6c(c1)c2c3c4c56 [benzo[ghi]perylene]

Compound: OBr [hypobromous acid]
Henry solubility constant Hcp [2]: > 13
Henry solubility constant Hcp [3]: > 13

Compound: ClCCl [dichloromethane]
Henry solubility constant Hcp (reference: Brockbank (2013)): 0.0037
Henry solubility constant Hcp [2]: 0.0039
Henry solubility constant Hcp [3]: 0.0039
Henry solubility constant Hcp (reference: Dilling (1977)): 0.0037
Henry solubility constant Hcp (reference: Dilling et al. (1975)): 0.0037
Henry solubility constant Hcp (reference: Goldstein (1982)): 0.0031
Henry solubility constant Hcp [8]: 0.0042 and 0.0034
Henry solubility constant Hcp [5]: 0.0036
Henry solubility constant Hcp [6]: 0.0036

Henry solubility constant Hcp (reference: Brockbank (2013)): 3.3e-06
Compound: CC(C)C(C)C(C)C [2,3,4-trimethylpentane]

Henry solubility constant Hcp (reference: MacBean (2012b)): 14000
Compound: O=C(O)C1(C(=O)Nc2ccc(Cl)cc2Cl)CC1 [cyclanilide]

Henry solubility constant Hcp (reference: Brockbank (2013)): 0.17
Compound: CCOC(=O)c1ccccc1 [ethyl benzoate]

Henry solubility constant Hcp (reference: Brockbank (2013)): 1.6e-05
Compound: C[C@@H]1CCCC[C@H]1C (relative stereo) [trans-1,2-dimethylcyclohexane]

Henry solubility constant Hcp (reference: Brockbank (2013)): 0.0041
Compound: Cc1cccs1 [2-methylthiophene]

Henry solubility constant Hcp (reference: Brockbank (2013)): 15
Henry solubility constant Hcp (reference: Petrasek et al. (1983)): 6.6
Compound: c1ccc2c(c1)ccc1c3ccccc3ccc21 [chrysene]

Henry solubility constant Hcp (reference: Brockbank (2013)): 3e-09
Compound: FC(F)(F)C(F)(F)C(F)(F)C(F)(F)C(F)(F)C(F)(F)C(F)(F)F [hexadecafluoroheptane]

Compound: [C-]#[O+] [carbon monoxide]
Henry solubility constant Hcp [2]: 9.7e-06
Henry solubility constant Hcp [3]: 9.7e-06
Henry solubility constant Hcp [5]: 9.7e-06
Henry solubility constant Hcp [6]: 9.7e-06

Compound: ClC(Cl)=C(Cl)C(Cl)=C(Cl)Cl [hexachlorobutadiene]
Henry solubility constant Hcp (reference: Brockbank (2013)): 0.00056
Henry solubility constant Hcp [4]: 0.00083
Henry solubility constant Hcp (reference: Goldstein (1982)): 0.00098
Henry solubility constant Hcp (reference: Horvath and Getzen (1999)): 0.00096

Henry solubility constant Hcp [1]: 82
Compound: COc1c(Cl)ccc(Cl)c1C(=O)O [dicamba]

Compound: CCCCN(CC)C(=O)SCCC [pebulate]
Henry solubility constant Hcp [1]: 0.00084

Henry solubility constant Hcp (reference: Brockbank (2013)): 0.0029
Compound: CCCOCCC [dipropyl ether]

Compound: CCCCOC(=O)c1ccccc1C(=O)OCCCC [dibutyl phthalate]
Henry solubility constant Hcp (reference: Brockbank (2013)): 11
Henry solubility constant Hcp (reference: McCarty (1980)): 0.16

Compound: C1=Cc2cccc3cccc1c23 [acenaphthylene]
Henry solubility constant Hcp (reference: Brockbank (2013)): 0.085
Henry solubility constant Hcp [4]: 0.091

Compound: CCCOC(=O)c1ccccc1C(=O)OCCC [dipropyl phthalate]
Henry solubility constant Hcp (reference: Brockbank (2013)): 22

Compound: COP(=O)(NC(C)=O)SC (stereo unspecified) [acephate]
Henry solubility constant Hcp [1]: 190000

Henry solubility constant Hcp (reference: Brockbank (2013)): 0.023
Compound: CC(C)C(=O)C(C)C [2,4-dimethyl-3-pentanone]

Henry solubility constant Hcp (reference: Brockbank (2013)): 0.34
Henry solubility constant Hcp [4]: 0.23
Henry solubility constant Hcp (reference: Goldstein (1982)): 0.093
Henry solubility constant Hcp (reference: McCarty (1980)): 0.076
Compound: c1ccc2c(c1)ccc1ccccc12 [phenanthrene]

Compound: [N]=O [nitrogen monoxide]
Henry solubility constant Hcp (reference: Loomis (1928)): 1.9e-05
Henry solubility constant Hcp [5]: 1.9e-05
Henry solubility constant Hcp [6]: 1.9e-05
Henry solubility constant Hcp [9]: 1.9e-05
Henry solubility constant Hcp (reference: Young (1981b)): 1.9e-05

Compound: Clc1ccc(Cl)cc1 [1,4-dichlorobenzene]
Henry solubility constant Hcp (reference: Brockbank (2013)): 0.0038
Henry solubility constant Hcp [4]: 0.0045
Henry solubility constant Hcp (reference: Goldstein (1982)): 0.0037

Henry solubility constant Hcp [1]: 36
Compound: CN(C)C(=O)Nc1ccccc1 [fenuron]
